According to paper PMC11982498 (Redox Biology, 2025):

Columns and labels:
[1] = test system: bio-(G2C4)6 (DNA, i motif) GGCCCCGGCCCCGGCCCCGGCCCCGGCCCCGGCCCC; experiment: SPR; settings: K+ 100 mM; 20 mM MES, pH 5.5, 25 °C
[2] = test system: bEnd.3 in vitro BBB model; experiment: Measurement of in vitro BBB transport (bEnd.3 transwell); type: in vitro ADME
Protocol: bEnd.3 (10 × 10^4 cells/well) was cultured in the upper chamber of a 12 wells-plate within a transwell system. The transepithelial electrical resistance (TEER) was measured to monitor the tightness of the monolayer, and the monolayer of cells with a minimum of 200 Ω cm^2 was used for further experiments.

[3] = test system: BCL-2 gene transcription in SH-SY5Y cells; experiment: Real-time RT-PCR in SH-SY5Y cells, BCL-2; type: cell-based, human
Protocol: SH-SY5Y cells were treated with or without B14, and total RNA was subsequently isolated and purified. Reverse transcription was performed using a cDNA synthesis kit. The relative transcription levels of the genes were evaluated through quantitative real-time PCR using the SYBR Green-based method, as described in the Supplementary Date. Details regarding the primer sequences and the raw data can be found in Table S7 and Table S8.
^a -∆∆Ct = -[(Ct value of genes in treated sample - Ct value of genes in control) - (Ct value of β-actin in treated sample - Ct value of β-actin in control)]. ^b F: The relative expression fold.
Experiment 1: SH-SY5Y cells were treated with different concentration of B14. The Ct values of BAX, VEGF, CMYC and BCL-2 were obtained.
Total RNA was extracted from cells and mice liver tissue using RNAiso Plus (Takara, 9109, Japan). Following sample homogenization, chloroform was added, and the solution was allowed to have phase separation into an upper aqueous layer (containing RNA), an interphase, and a lower organic layer (containing DNA and proteins). RNA was precipitated from the aqueous phase using isopropanol, while DNA was precipitated from the aqueous-organic interphase using ethanol. Complementary DNA (cDNA) was synthesized using the One-Step RT-PCR Kit (Takara, Cat#639503, Japan).
Quantitative real-time polymerase chain reaction (qRT-PCR) was performed using the 2× RealStar SYBR Mixture (GenStar, Cat# A301-10, Guangzhou, China) on a LightCycler 480 II real-time PCR system (Roche, USA). Data were analyzed using the 2^−ΔΔCt method. Actin served as the internal control, and relative mRNA levels were normalized accordingly.

[4] = test system: BCL-2, C-MYC and VEGF protein expressions in SH-SY5Y cells; experiment: Western blot in SH-SY5Y cells; type: cell-based; settings: increasing concentration of B14, 24 h
Protocol: (§1) Protein samples (25–40 μg) were separated using 10 % SDS-PAGE and subsequently transferred onto PVDF membranes (0.22 μm, Servicebio, Guangzhou, China) via electro transfer. Following blocking with TBST solution (Servicebio, Guangzhou, China) containing 5 % BSA (Solarbio, Beijing, China) for approximately 60 min at room temperature, the membrane was exposed to various primary antibodies overnight at 4 °C on a rotating shaker. Then, the membranes were incubated with HRP-conjugated secondary antibody (Affinity, Changzhou, China) for 2 h. Protein bands were then detected using an ECL kit. The signal intensity of each target protein was quantified using Image J 1.8.0 software (Bio-Rad Laboratories, California, USA).
Primary antibodies for Western blot analysis include BCL-2 (affinity biosciences OH, Cat# AF6139, USA), BAX (affinity biosciences OH, Cat# AF0120, USA), VEGF (affinity biosciences OH, Cat# AF5131, USA), C-MYC (affinity biosciences OH, Cat# AF0358, USA), Caspase9 (affinity biosciences OH, Cat# AF6348, USA), cleaved-Caspase9 (affinity biosciences OH, Cat# AF5240, USA), Caspase3 (affinity biosciences OH, Cat# AF6311, USA), cleaved-Caspase3 (affinity biosciences OH, Cat# AF7022, USA), and Cyto-C (affinity biosciences OH, Cat# AF6139, USA).

SH-SY5Y cells = experiment: FITC Annexin V/PI cell apoptosis analysis in Aβ1-42 model; type: cell-based; settings: 25 μM Aβ1-42 induced model
Protocol: The FITC Annexin V/PI apoptosis analysis was conducted using the FITC Annexin V/PI Apoptosis Detection Kit (Muti sciences, 70-AP101-100). Cells were treated with varying concentrations of B14 in a 6-well plate containing a cell model induced with 25 μM Aβ1-42. After digestion and resuspension in 500 μL binding buffer, samples were incubated with 5 μL of FITC Annexin V for 5 minutes, followed by the addition of 5 μL PI for further incubation at room temperature for 10 minutes. Flow cytometry analysis (Millipore, guava easy Cyte) was used to measure fluorescence intensity, and data analysis was performed using Flow jo V10.

[5] = test system: GFAP, Iba-1, NF-κB, TNF-α and IL-6 in hippocampus of APP/PS1 mice; experiment: Neuroinflammation markers in hippocampus; type: in vivo
Protocol: as §1
Five months old male APP/PS1 mice, weighing 25–33 g, were purchased from Guangdong Medical Laboratory Animal Center and housed in the Laboratory Animal Center of Sun Yat-sen University (Guangzhou, China) for experimentation. All procedures were approved by the Animal Care and Use Committee of Sun Yat-sen University and complied with legal requirements and national guidelines for the care and maintenance of laboratory animals (Approval No. SYSU-IACUC-2024-002032). The mice were housed in a specific pathogen-free environment with a controlled temperature of 22 ± 1 °C and a 12-h dark/light cycle. […]

## O=C(CCN1CCOCC1)Nc1ccc2c(c1)c(=O)c1cc(NC(=O)CCN3CCOCC3)ccc1n2-c1ccc2occc2c1 [Compound B14]
[1]
  KD: 33.30 µM
[2]; 6 h
  Permeability: 45.80%
[2]; 24 h
  Permeability: 55.74%
[3]; 6.25 μM B14
  -∆∆Ct, BCL-2: -0.31
  F = 2^-∆∆Ct (relative expression fold), BCL-2: 1.23
[3]; 12.5 μM B14
  -∆∆Ct, BCL-2: -0.73
  F = 2^-∆∆Ct (relative expression fold), BCL-2: 1.65
[3]; 25 μM B14
  -∆∆Ct, BCL-2: -1.11
  F = 2^-∆∆Ct (relative expression fold), BCL-2: 2.15
[4]
  BCL-2 translation (Western blot): up-regulate BCL-2 translation in SH-SY5Y cells in a dose-dependent manner
  C-MYC and VEGF expression (Western blot): without significant effect on C-MYC and VEGF expression
SH-SY5Y cells
  apoptosis ratio: decreased in a dose-dependent manner
[5]
  activation of astrocytes (GFAP) and microglia (Iba-1): reduce the activations of astrocytes
  expressions of inflammatory factors: decrease the expressions of the inflammatory factors NF-κB, TNF-α and IL-6
